Reference: patent US12404532B2, “Composition for producing glucosylated steviol glycoside including glucosyltransferase and method of producing glucosylated steviol glycoside using the same” (CJ CHEILJEDANG CORPORATION, priority 2019, dated 2025)
“Also recorded” adds a separate entry of the source.

B1: 75 kDa protein of Fraction No. 2: 75 kDa protein purified from Lactobacillus mali culture, identified by LC-MS as amino acid sequence SEQ ID NO: 1; glucosyltransferase (protein, listed as Lactobacillus mali)
chain: MDQMVLETQQWLNKTYGGVSGFGSVTEDGLTGWGTVYGLTRALQHELGITGLVNNFGPTSKQKFNNIAKTIVVGYTGNIAYIIQGGFWCKGITPGEFDGKFSADTASAVTTMKTKAGLADTSSSVDGNFMAALLNMSSFDLLTGGDSKVREMQQQLNHDYLAYTGILPCDGIYQRDTNSALIYALQAEEKISTSVATGAYGATTKKDTPTVKEGTTNNFVRILQWGLYVNNKAYTGAFDGVYDSAVVAAVKEFEETMALDSTDGTSAGVDIFMSLLTSAGNPDRSAIACDTSYQLNATRVATLKNAGYSIVGRYLTGTVGSGTSERAKNLTTDEITAITTGGLKIFPIYQDGASDKEAYFTAAQGKTDGTKAVYAAQDLGFKEGVVIYFAVDADIQAGDIAGSAKVYFEALYDIVTSYGYEVGIYGTRNVSATIISAGLATKAFISDMSTGYSGNLGYSIPDEWAFDQFSEISIGDFAIDKDATTSARETATGSFGVGGESGYGNAEDLAKINTIIDALSQKKNFSYLSGLKIEKTSKEYEIPGFAVDFYVQVKFEASVSEPGDNVGVVYNVSNGKFESDFTDTIAGVVALSDEINKEDINSALTELSSLINNGQIWVEPVTKGSDAGIALHIKSTFDHTLDSGETIELEYEIIIDEIFHKIEVVPTGVPNTTANDYNSLFPNGIKEFVGFSIVAGLATGGIYYVVTAVGATAAVVTTSILALIALLKNNDTGV

Key:
[1] = system: Lactobacillus mali crude enzyme solution including the enzyme including the amino acid sequence of SEQ ID NO: 1; experiment: Glucose transfer to steviol glycoside by crude enzyme solution (HPLC); type: biochemical; conditions: 6% substrate, 6% white sugar, 50 mM sodium acetate buffer pH 5.0, 40 °C, 24 hours
Procedure: 6% Rebaudioside A (purecircle) or 6% Stevioside (carbosynth), and 6% white sugar (CJ CheilJedang) were dissolved in a 50 mM sodium acetate buffer (pH 5.0), and then the Lactobacillus mali crude enzyme solution including the enzyme including the amino acid sequence of SEQ ID NO: 1 was added thereto, and allowed to react at 40° C. for 24 hours. Thereafter, whether glucosylated Rebaudioside A or glucosylated Stevioside was produced was confirmed by HPLC, and the results are shown in FIGS. 2 to 5. Meanwhile, HPLC analysis conditions are as follows:
FIGS. 2 and 4 show HPLC analysis results before the enzyme reaction, and FIGS. 3 and 5 show HPLC analysis results after the enzyme reaction.

[2] = system: enzyme including the amino acid sequence of SEQ ID NO: 1; experiment: Glucose transfer to steviol glycoside by purified recombinant enzyme (HPLC); type: biochemical, Lactobacillus mali; conditions: 6% substrate, 6% white sugar, 50 mM sodium acetate buffer pH 5.0, 40 °C, 24 hours, purified enzyme of Example 5-1
Procedure: A polynucleotide encoding the amino acid sequence of SEQ ID NO: 1 was prepared by a polynucleotide synthesis method (Bioneer Corp.), and the obtained polynucleotide was inserted into a pBT7-N-His vector, which was then transformed into E. coli BL21(DE3). The transformed E. coli was smeared on a plate medium containing ampicillin to obtain a recombinant strain (microorganism).
The recombinant E. coli strain was seeded in 5 mL of an LB medium containing ampicillin, and seed culture was carried out at 37° C. until optical density at 600 nm reached 2.0. The seed culture broth was added to 500 mL of an LB medium containing ampicillin, and main culture was carried out. Thereafter, when optical density at 600 nm reached 0.4, 0.1 mM isopropyl β-D-thiogalactopyranoside (IPTG) was added to induce mass-expression of the enzyme including the amino acid sequence of SEQ ID NO: 1. During the process, an agitation speed was 180 rpm, and culture temperature was maintained at 37° C. After IPTG addition, the agitation speed was 120 rpm, and culture temperature was maintained at 16° C.
The culture broth was centrifuged at 10,000×g at 4° C. for 20 minutes to obtain a cell pellet. A 50 mM tris-HCl buffer solution was added to the pellet, and re-suspended as a cell solution. The cell solution was sonicated using a sonicator. […]

[3] = type: physicochemical
Procedure: The solubility of steviol glycoside and glucosylated steviol glycoside was measured.
Specifically, the solubility of Rebaudioside A (RA), Stevioside (STV), glucosylated Rebaudioside A (RA-Glu) of Example 4, and glucosylated Stevioside (STV-Glu) of Example 4 was measured, respectively.
Each 6 g of Rebaudioside A, Stevioside, glucosylated Rebaudioside A, and glucosylated Stevioside was mixed with 10 mL, and then dissolved by sonication at 50° C. for 60 minutes. The resultant was incubated for 1 week in a water bath at 5° C., 15° C., 25° C., 35° C., 45° C., or 55° C. Thereafter, the resulting solution was centrifuged at 12,000 rpm for 10 minutes, and 1 mL of the supernatant was collected and dried in an oven at 105° C. to measure the solubility, which is shown in Table 4.

[4] = Panel evaluation of actual sweetness and quality of sweetness; conditions: for Actual Sweetness / Evaluation of Quality of Sweetness: dissolved in water, provided to panels
Excerpt: The known material (i.e., α-(1,4) glucosylated Rebaudioside A) and the α-(1,6) glucosylated Rebaudioside A of Example 4 were independently dissolved in water and provided to panels for evaluation of actual sweetness and quality of sweetness.

[5] = Sugar hydrolysis activity by reducing sugar determination method (DNS method); type: biochemical; conditions: 200 mM sugar solution, 40 °C, 10 minutes
Procedure: To confirm the presence of the desired enzyme, sugar hydrolysis activity of each fraction was examined by a reducing sugar determination method (DNS method).
A 200 mM sugar solution and each fraction were mixed at a ratio of 1:1 in a 50 mM sodium acetate buffer, and allowed to react in a water bath at 40° C. for 10 minutes, followed by inactivation at 100° C. A DNS reagent was added thereto at a ratio of 1:3, and then mixed and allowed to react at 100° C. for 5 minutes, and then DNS reaction was immediately stopped on ice. Thereafter, optical density (OD) of the DNS reagent was measured at 575 nm, and the activity was confirmed from a constructed fructose standard curve. At this time, 1 unit is defined by the amount (mL) of an enzyme that produces 1 μmole of fructose per 1 minute.

| Molecule | Conversion rate into glucosylated steviol glycoside [1] | Solubility (%) [3] | Solubility as compared with Stevioside and Rebaudioside A, respectively [3] | Actual Sweetness [4] | other results |
| --- | --- | --- | --- | --- | --- |
| C=C1C[C@@]23CC[C@H]4[C@@](C)(CCC[C@@]4(C)C(=O)O[C@@H]4O[C@H](CO)[C@@H](O)[C@H](O)[C@H]4O)[C@@H]2CC[C@]1(O[C@@H]1O[C@H](CO)[C@@H](O)[C@H](O[C@@H]2O[C@H](CO)[C@@H](O)[C@H](O)[C@H]2O)[C@H]1O[C@@H]1O[C@H](CO)[C@@H](O)[C@H](O)[C@H]1O)C3 [RA, Rebaudioside A, reference compound] | about 90% | – | – | – | Conversion rate into glucosylated Rebaudioside A [2]: about 90% |
| C=C1C[C@@]23CC[C@H]4[C@@](C)(CCC[C@@]4(C)C(=O)O[C@@H]4O[C@H](CO[C@H]5O[C@H](CO)[C@@H](O)[C@H](O)[C@H]5O)[C@@H](O)[C@H](O)[C@H]4O)[C@@H]2CC[C@]1(O[C@@H]1O[C@H](CO)[C@@H](O)[C@H](O[C@@H]2O[C@H](CO)[C@@H](O)[C@H](O)[C@H]2O)[C@H]1O[C@@H]1O[C@H](CO)[C@@H](O)[C@H](O)[C@H]1O)C3 [RA-Glu, glucosylated Rebaudioside A] | – | ≥ 40 ↑ % | remarkably increased solubility | 26 | Evaluation of Quality of Sweetness ([4]; listed as α-(1,6) glucosylated Rebaudioside A): better quality of sweetness; also recorded: Gives sweet taste in the beginning, has; Sweetness as compared with the α-(1,4) glucosylated Rebaudioside A ([4]; summary of Table 5): high sweetness |
| C=C1C[C@@]23CC[C@H]4[C@@](C)(CCC[C@@]4(C)C(=O)O[C@@H]4O[C@H](CO)[C@@H](O)[C@H](O)[C@H]4O)[C@@H]2CC[C@]1(O[C@@H]1O[C@H](CO)[C@@H](O)[C@H](O)[C@H]1O[C@@H]1O[C@H](CO)[C@@H](O)[C@H](O)[C@H]1O)C3 [STV, Stevioside, reference compound] | about 90% | – | – | – | – |
| C=C1C[C@@]23CC[C@H]4[C@@](C)(CCC[C@@]4(C)C(=O)O[C@@H]4O[C@H](CO[C@H]5O[C@H](CO)[C@@H](O)[C@H](O)[C@H]5O)[C@@H](O)[C@H](O)[C@H]4O)[C@@H]2CC[C@]1(O[C@@H]1O[C@H](CO)[C@@H](O)[C@H](O)[C@H]1O[C@@H]1O[C@H](CO)[C@@H](O)[C@H](O)[C@H]1O)C3 [STV-Glu, glucosylated Stevioside] | – | ≥ 40 ↑ % | remarkably increased solubility | – | – |
| α-(1,4) glucosylated Rebaudioside A [reference compound] | – | – | – | 19 | Evaluation of Quality of Sweetness [4]: Bitter taste is stronger than sweet taste, |
| B1 | – | – | – | – | Sugar hydrolysis activity [5]: had sugar hydrolysis activity |
